Assay results published in patent publication US5686109A, “Antipyretic analgesic composition” (priority 1993, dated 1997).

System: SD strain rats (pain threshold of right hind leg)
Test: Pain Removing Effect (Randall-Selitto method, heat edema)
Format: in vivo, rat
Settings: 2 h after administration, mean ± standard error, n=10 rats
Protocol: Test substances and doses:
IPA and IBP were respectively suspended in a 0.5% aqueous solution of methylcellulose (MC) to a concentration of 8 mg/ml. The test suspensions for groups 2 and 3 were prepared by mixing the IPA suspension and IBP suspension together in a proportion of 3:1 (group 2) or 1:3 (group 3). The doses used are shown below. Each suspension was orally administered at a volumetric dose of 5 ml/kg.
Group 1: IPA 40 mg/kg+IBP 0 mg/kg
Group 2: IPA 30 mg/kg+IBP 10 mg/kg
Group 3: IPA 10 mg/kg+IBP 30 mg/kg
Group 4: IPA 0 mg/kg +IBP 40 mg/kg
Six-week-old male SD strain rats (Nippon SLC) fasted 24 hours before experiment were used in groups of 10. They were grouped such that the four groups were uniform in mean body weight.
First, the pain threshold value before thermal stimulation was measured (0 hour value). Then, heat edema was caused on the right hind leg of the rat by immersing said leg in hot water (54° C.) just to the fibular ankle (boundary showing sudden change in hair density) for 12 seconds. Two hours later, the pain threshold of the right hind leg was measured (2 hours value), immediately followed by test substance administration. After the lapse of two further hours, the pain threshold of the right hind leg was measured (4 hours value).
The percent pain removal was calculated by the following formula: [formula]

Row | SMILES | Pain removal (%) (IPA 0 mg/kg + IBP 40 mg/kg PO) | Pain removal (%) (IPA 40 mg/kg PO + IBP 0 mg/kg)
1 | CC(C)Cc1ccc(C(C)C(=O)O)cc1 (centres unmarked) [IBP, 2-(4-isobutylphenyl)propionic acid] | 32.3 ± 7.5 | –
2 | Cc1c(C(C)C)c(=O)n(-c2ccccc2)n1C [IPA, 4-isopropyl-2,3-dimethyl-1-phenyl-3-pyrazolin-5-one] | – | 25.8 ± 15.9
